Measurements reported in patent publication US20240327791A1, “METHODS OF T CELL PRODUCTION” (Adaptimmune Limited, priority 2021, published 2024).
“Also recorded” adds a separate entry of the source.

How the values were obtained:
Type in all cases: cell-based
[1] = test system: haematopoietic progenitor cells (iPSC derived CD34+ cells); assay: Viability and proliferation of HPCs / iPro T cells cultured with pyrimidoindole compound (cell counts, NC-250); details: for viability of cells: UM729 0.25 μM to 1.0 μM (up to 1 μM)
Method: iPSC cells (HCP1324_c1A12) were differentiated to day 16, using our in-house Proprietary media. HPC (CD34+ cells) were isolated using MACS and a cryopreserved bank of these cells was created for further differentiation into iT-Cells. HPC were then thawed and seeded at 5000 cells per cm^2 in 1 ml of lymphoid progenitor (stage 4; LP) media on the standard SCT's coating (2.5 μL/cm^2). UM729 was added to the culture media in a range of concentrations from 0.25 μM-5 μM. On day 3, 1 mL of LP media with the required concentration of UM729 was added and further demi-media changes were carried out every 3 days, with the required media concentration. Every 14 days cells were removed from culture and counted using NC-250. The cells were then replated on to fresh SCT matrix and UM729 was added to the media at the relevant concentration. Cells were removed from the cultures after 21, 35 and 42 days and phenotyped using the panel in Table 1. At these timepoints cells were either continued on in lymphoid progenitor media with the relevant UM729 concentrations or transferred into T cell maturation conditions. On day 21, 35 and 42 of culture iPro T Cells were seeded onto fresh SCT matrix (2.5 μl/cm^2) at a density of 250,000 cells per cm^2. Cells were cultured in T-Cell maturation media either with or without UM729 (0.25-5 μM), with demi-media changes every 3 days for 2 weeks. After 2 weeks of maturation the cells were counted using the NC-250 and phenotyped by flow cytometry using the panel in Table 1.

[2] = test system: haematopoietic progenitor cells (iPSC derived CD34+ cells); assay: Flow cytometry phenotyping of HPCs differentiated in lymphoid progenitor (stage 4) medium with pyrimidoindole compound
Method: (§1) HPC were then thawed and seeded at 5000 cells per cm^2 in 1 ml of lymphoid progenitor (stage 4; LP) media on the standard SCT's coating (2.5 μL/cm^2). UM729 was added to the culture media in a range of concentrations from 0.25 μM-5 μM. On day 3, 1 mL of LP media with the required concentration of UM729 was added and further demi-media changes were carried out every 3 days, with the required media concentration. Every 14 days cells were removed from culture and counted using NC-250. The cells were then replated on to fresh SCT matrix and UM729 was added to the media at the relevant concentration. Cells were removed from the cultures after 21, 35 and 42 days and phenotyped using the panel in Table 1. At these timepoints cells were either continued on in lymphoid progenitor media with the relevant UM729 concentrations or transferred into T cell maturation conditions. On the day of the assay, the cells were counted, washed twice in FACS Buffer and phenotyped by flow cytometry for T-cell markers.

iPro T cells [3] = assay: Expansion of iPro T cells in stage 4 medium; details: UM729 0.25 μM to 1.0 μM in stage 4 medium, up to 42 days
Method: as §1, with “conditions.” for “conditions. On the day of the assay, the cells were counted, washed twice in FACS Buffer and phenotyped by flow cytometry for T-cell markers.”

iPro T cells [4] = assay: T cell maturation in stage 5 medium after stage 4 pre-treatment, flow cytometry; details: pre-treated with UM729 21 days in stage 4 medium, then 14 days stage 5 medium without UM729
Method: On day 21, 35 and 42 of culture iPro T Cells were seeded onto fresh SCT matrix (2.5 μl/cm^2) at a density of 250,000 cells per cm^2. Cells were cultured in T-Cell maturation media either with or without UM729 (0.25-5 μM), with demi-media changes every 3 days for 2 weeks. After 2 weeks of maturation the cells were counted using the NC-250 and phenotyped by flow cytometry using the panel in Table 1. On the day of the assay, the cells were counted, washed twice in FACS Buffer and phenotyped by flow cytometry for T-cell markers.

iPro T cells [5] = assay: Recovery of iPro T cells from freeze/thaw and culture in stage 5 medium; details: pre-treated with UM729 at 1 μM in stage 4 medium; 7 days in stage 5 medium
[6] = UM729 5.0 μM or higher, 21 days
[7] = UM729 0.25 μM to 1.0 μM in stage 4 media, 21 days
[8] = UM729 0.25 μM to 1.0 μM, 21 days
[9] = UM729 0.25 μM to 1.0 μM, 35 days (UM729 also in stage 5 cultures)

For `COC(=O)c1ccc2c(c1)[nH]c1ncnc(NCCCN3CCCCC3)c12` [UM729, methyl 4-(3-piperidin-1-ylpropylamino)-9H-pyrimido[4,5-b]indole-7-carboxylate], which viability of cells ([1]; 21 days) is on record?
Its viability of cells is “maintain viability; also recorded: not to affect the viability”.

What about the viability of cells ([1]; 35 days) of the same compound?
Its viability of cells is “not to affect the viability; also recorded: maintain viability”.

And the “proliferation of total cells” value [1, 6]?
The value was “reduced or ceases; also recorded: ceased”.

What about the “viability of total cells” value [1, 6] of the same compound?
Its value is “reduced or ceases; also recorded: comparably low”.

What about the cytotoxic effects ([1]; UM729 at concentrations of 5 μM and above) of the same compound?
The cytotoxic effects was “cytotoxic effects were observed”.

What about the “differentiation into / yield of CD7+CD5+ iPro T cells (FIG. 4A)” value [2, 7] of the same compound?
The value was “promotes differentiation into iProT cells; also recorded: increase the yield”.

What about the “percentage of CD7+CD5+ iPro T cells (FIG. 4B)” value [2, 7] of the same compound?
Its value is “enriches the percentage of iProT cells; also recorded: enrich the percentage”.

What about the “fraction of CD8+CD4+ double positive cells (further differentiation to DP T cells)” value ([2]; UM729 0.25 μM to 1.0 μM in stage 4 medium, 21 days) of the same compound?
The value was “decreases the fraction of CD8+CD4+ double positive cells; also recorded: inhibited further differentiation”.

What about the “lymphoid fraction of the cells” value [2, 8] of the same compound?
Its value is “increases the lymphoid fraction”.

And the “myeloid fraction of the cells (myeloid cellular contamination)” value [2, 8]?
The value was “reduces the myeloid fraction; also recorded: reduce this cellular contamination in a dose dependent manner”.

What about the “differentiation into / percentage of CD7+CD5+ iPro T cells (FIG. 7)” value [2, 9] of the same compound?
The value was “increasing; also recorded: promotes differentiation into iProT cells”.

What about the “fraction / development of CD8+CD4+ double positive cells (FIG. 8)” value [2, 9] of the same compound?
The value was “inhibited in a dose dependent manner; also recorded: decreases the fraction of CD8+CD4+ double positive cells”.

And the “expansion of iPro T cells (FIG. 9)” value (iPro T cells [3])?
Its value is “supported over 42 days; also recorded: greatly enhances the expansion of iProT cells”.

And the “differentiation to CD4+CD8+ double positive T cells after removal of UM729 (FIG. 10)” value (iPro T cells [4])?
The value was “found to be removed; also recorded: will become CD4+CD8+ double positive”.

What about the “cell proliferation after culture in stage 5 medium (FIG. 12B)” value (iPro T cells [5]) of the same compound?
Its value is “increased cell proliferation”.

What about the “viability after culture in stage 5 medium (FIG. 12A)” value (iPro T cells [5]) of the same compound?
The value was “higher viability”.
